Laboratory results from patent US20180311241A1, “PHARMACEUTICAL SYNERGISTIC COMBINATION” (CADILA HEALTHCARE LIMITED, priority 2015, published 2018).
Where “and” joins values, the source holds several entries; their conditions need not be identical. Identical values can stand only once.

Assays:
[1] = target: NEP (Homo sapiens, UniProt P08473); details: in vivo; cited from earlier work
[2] = test system: rat model of infrarenal abdominal aorta-vena cava fistula (AV fistula); assay: AV fistula model: cumulative urinary sodium excretion; assay type: in vivo, Sprague Dawley rats; details: PO; for Urinary sodium (cumulative sodium excretion): 7 days of treatment, AV fistula rats; for % change in urinary sodium: 7 days, against vehicle control
From the text: Sprague Dawley rats will be used in the study at the age to 6-8 weeks. A midline abdominal incision will be made under anesthesia to expose the vena cava and abdominal aorta distal to the origin of the renal arteries. A longitudinal incision will be performed in the outer wall of the vena cava. The common wall between the aorta and vena cava will be grabbed through the incision and a fistula (1.0-1.2 mm outer diameter) will be created between the vena cava and aorta. The opening of the outer wall of the vena cava will be closed with a continuous suture. After the surgical procedure, the animals will be allowed to recover with daily monitoring of urine output and sodium excretion in metabolic cages. A matched group of sham-operated rats will serve as controls. After a week of surgical operation, rats will be divided into subgroups according to their daily absolute rate of sodium excretion. Fimasartan or its pharmaceutically acceptable salt, or Sacubitril or its pharmaceutically acceptable salt or their combination will be taken as a low dose, middle dose, and high dose group. Animals will be treated daily for four weeks with weekly measurement of blood pressure. Additionally, sodium excretion and creatinine clearance will be measured twice weekly. In the rat model of infrarenal abdominal aorta-vena cava fistula (AV fistula), workload on heart increases by sustained volume overload, this reduces sodium excretion and leads to cardiac hypertrophy. […] Sprague Dawley rats in these experimental groups were treated daily by gavage for seven days and urine volume and sodium excretion were daily measured. Rats treated with vehicle served as controls. Rats with sham operation or animals with arterio-venous fistula treated with vehicle served as controls. Animals were randomized based on 24 h urinary sodium excretion. Animals with <100 μEq/24 h urinary sodium excretion were selected in study except sham control animals. Treatment was initiated for 7 days with daily measurement of sodium excretion and results were expressed as cumulative urinary sodium excretion. […] These observations indicate that combination of fimasartan and sacubitril reduce volume overload associated with AV Fistula. After completion of the treatment period, mean arterial blood pressure was evaluated from animals from different experimental groups.

[3] = test system: five sixth nephrectomized rats; assay: Subtotal nephrectomy induced hypertension: blood pressure; assay type: in vivo, Sprague Dawley rats; details: four weeks
Procedure: Fimasartan 10 mg/kg and Sacubitril 50 mg/kg and combination were administered for 4 weeks. Prior to initiation, Sprague Dawley rats were randomized based on their systolic blood pressure after one week of recovery. These experimental groups were treated daily by gavage for four weeks and their weekly blood pressure was measured. Rats treated with vehicle served as controls and sham operated animals treated with vehicle served as sham controls. […] Experimental model of acute cardiac failure is characterized by several features that closely mimic the pathophysiological consequences of CHF in patients, includes the characteristic neurohumoral activation, decrease in renal perfusion, sodium retention and cardiac hypertrophy (J Biomed Biotechnol. 2011; 2011: 729497). […] Five sixth nephrectomy represent a model of hypertension in rats and in clinic it has been observed that loss of renal mass is associated with increased hypertension (APMIS. 1992 December; 100(12):1097-105; International Journal of Urology (2015) 22, 797-804).

[4] = test system: rat model of infrarenal abdominal aorta-vena cava fistula (AV fistula); assay: AV fistula model: mean arterial blood pressure; assay type: in vivo, Sprague Dawley rats; details: for % change in meal arterial pressure / Mean arterial pressure: PO; for % change in meal arterial pressure: 7 days, against vehicle control; for Mean arterial pressure: after 7 days of treatment, AV fistula rats; for reduction of mean arterial blood pressure: after treatment period, in comparison to vehicle control, given as reduction
From the text: Sprague Dawley rats will be used in the study at the age to 6-8 weeks. A midline abdominal incision will be made under anesthesia to expose the vena cava and abdominal aorta distal to the origin of the renal arteries. A longitudinal incision will be performed in the outer wall of the vena cava. The common wall between the aorta and vena cava will be grabbed through the incision and a fistula (1.0-1.2 mm outer diameter) will be created between the vena cava and aorta. The opening of the outer wall of the vena cava will be closed with a continuous suture. After the surgical procedure, the animals will be allowed to recover with daily monitoring of urine output and sodium excretion in metabolic cages. A matched group of sham-operated rats will serve as controls. After a week of surgical operation, rats will be divided into subgroups according to their daily absolute rate of sodium excretion. Fimasartan or its pharmaceutically acceptable salt, or Sacubitril or its pharmaceutically acceptable salt or their combination will be taken as a low dose, middle dose, and high dose group. Animals will be treated daily for four weeks with weekly measurement of blood pressure. Additionally, sodium excretion and creatinine clearance will be measured twice weekly. In the rat model of infrarenal abdominal aorta-vena cava fistula (AV fistula), workload on heart increases by sustained volume overload, this reduces sodium excretion and leads to cardiac hypertrophy. Rats receiving fimasartan (5, 10 and 30 mg/kg/day), sacubitril (25, 50 and 75 mg/kg/day) and combination (fimasartan 10 mg/kg and sacubitril 50 mg/kg) were evaluated in AV fistula model. Sprague Dawley rats in these experimental groups were treated daily by gavage for seven days and urine volume and sodium excretion were daily measured. Rats treated with vehicle served as controls. Rats with sham operation or animals with arterio-venous fistula treated with vehicle served as controls. Animals were randomized based on 24 h urinary sodium excretion. Animals with <100 μEq/24 h urinary sodium excretion were selected in study except sham control animals. Treatment was initiated for 7 days with daily measurement of sodium excretion and results were expressed as cumulative urinary sodium excretion. […] These observations indicate that combination of fimasartan and sacubitril reduce volume overload associated with AV Fistula. After completion of the treatment period, mean arterial blood pressure was evaluated from animals from different experimental groups.

Chain of NEP (P08473 whole entry): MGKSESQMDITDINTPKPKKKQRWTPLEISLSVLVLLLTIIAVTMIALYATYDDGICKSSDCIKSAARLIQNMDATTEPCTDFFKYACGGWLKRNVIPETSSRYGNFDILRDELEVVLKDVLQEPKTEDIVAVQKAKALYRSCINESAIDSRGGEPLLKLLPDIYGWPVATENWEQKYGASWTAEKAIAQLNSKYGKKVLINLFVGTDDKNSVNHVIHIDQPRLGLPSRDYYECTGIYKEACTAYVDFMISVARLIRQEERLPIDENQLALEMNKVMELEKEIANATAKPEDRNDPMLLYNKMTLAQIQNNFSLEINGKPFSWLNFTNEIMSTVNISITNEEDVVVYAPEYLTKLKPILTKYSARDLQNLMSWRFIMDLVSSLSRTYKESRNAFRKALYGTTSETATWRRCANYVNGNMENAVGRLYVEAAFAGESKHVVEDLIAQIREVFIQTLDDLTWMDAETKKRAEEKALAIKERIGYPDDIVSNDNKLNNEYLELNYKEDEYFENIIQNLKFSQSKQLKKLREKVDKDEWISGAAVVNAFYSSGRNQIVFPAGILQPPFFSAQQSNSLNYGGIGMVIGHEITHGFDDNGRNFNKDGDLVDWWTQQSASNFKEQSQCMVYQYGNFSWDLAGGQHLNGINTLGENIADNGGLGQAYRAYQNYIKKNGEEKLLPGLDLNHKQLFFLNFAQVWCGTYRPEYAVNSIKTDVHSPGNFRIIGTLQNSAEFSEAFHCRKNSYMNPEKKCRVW

Compound: COCCOC[C@H](CC1(C(=O)N[C@H]2CC[C@@H](C(=O)O)CC2)CCCC1)C(=O)O [candoxatrilat]
- natriuretic and cyclic GMP responses to a low-dose ANP infusion [1]: potentiates

Compound: CCCCc1nc(C)c(CC(=S)N(C)C)c(=O)n1Cc1ccc(-c2ccccc2-c2nnn[nH]2)cc1 [Fimasartan, 2-n-butyl-5-dimethylaminothiocarbonyl-methyl-6-methyl-3-[[2′-(1H-tetrazol-5-yl)biphenyl-4-yl]methyl]pyrimidin-4(3H)-one]
- Urinary sodium (cumulative sodium excretion) ([2]; fimasartan 5 mg/kg): 4784.8 ± 497.5 μeq/24 h
- % change in urinary sodium ([2]; fimasartan 5 mg/kg): 31.1 ± 13.6 %
- % change in urinary sodium ([2]; fimasartan 5 mg/kg, listed as fimasartan): 31.1±13.6%
- Urinary sodium (cumulative sodium excretion) ([2]; fimasartan 10 mg/kg): 5179.7 ± 451.2 μeq/24 h and 5179.7 ± 443.7 μeq/24 h
- % change in urinary sodium ([2]; fimasartan 10 mg/kg): 41.9 ± 12.2 % and 51.2 ± 11.9 %
- % change in urinary sodium ([2]; fimasartan 10 mg/kg, listed as fimasartan): 41.9±12.2%
- Urinary sodium (cumulative sodium excretion) ([2]; fimasartan 20 mg/kg): 6664.7 ± 448.2 μeq/24 h
- % change in urinary sodium ([2]; fimasartan 20 mg/kg): 82.6 ± 13.1 %
- % change in urinary sodium ([2]; fimasartan 20 mg/kg, listed as fimasartan): 82.6±13.1%
- reduction in blood pressure against vehicle control ([3]; Fimasartan 10 mg/kg daily by gavage): 15.9%
- % change in meal arterial pressure ([4]; fimasartan 10 mg/kg): −5.9 ± 1.9 %
- Mean arterial pressure ([4]; fimasartan 10 mg/kg): 111.7 ± 2.3 mmHg
- reduction of mean arterial blood pressure ([4]; fimasartan alone (FIG. 2)): 5.9±1.9%

Compound: CCOC(=O)[C@H](C)C[C@@H](Cc1ccc(-c2ccccc2)cc1)NC(=O)CCC(=O)O [Sacubitril, 4-[[(2S,4R)-5-ethoxy-4-methyl-5-oxo-1-(4-phenylphenyl)pentan-2-yl]amino]-4-oxobutanoic acid]
- Urinary sodium (cumulative sodium excretion) ([2]; sacubitril 25 mg/kg): 5185.7 ± 443.7 μeq/24 h
- % change in urinary sodium ([2]; sacubitril 25 mg/kg): 41.9 ± 12.2 %
- % change in urinary sodium ([2]; sacubitril 25 mg/kg, listed as sacubitril): 41.9±12.1%
- Urinary sodium (cumulative sodium excretion) ([2]; sacubitril 50 mg/kg): 6678.7 ± 451.7 μeq/24 h
- % change in urinary sodium ([2]; sacubitril 50 mg/kg): 82.6 ± 13.5 %
- % change in urinary sodium ([2]; sacubitril 50 mg/kg, listed as sacubitril): 82.6±13.5%
- Urinary sodium (cumulative sodium excretion) ([2]; sacubitril 75 mg/kg): 9129.7 ± 449.7 μeq/24 h
- % change in urinary sodium ([2]; sacubitril 75 mg/kg): 150.1 ± 10.4 %
- % change in urinary sodium ([2]; sacubitril 75 mg/kg, listed as sacubitril): 150.1±10.4%
- reduction in blood pressure against vehicle control ([3]; Sacubitril 50 mg/kg daily by gavage): 18.7%
- % change in meal arterial pressure ([4]; sacubitril 50 mg/kg): −8 ± 1.9 %
- Mean arterial pressure ([4]; sacubitril 50 mg/kg): 109.2 ± 2.2 mmHg
- reduction of mean arterial blood pressure ([4]; sacubitril alone (FIG. 2)): 8.0±1.9%
